Consider six compounds from paper PMC4505625 (Cancer cell, 2015).

The subject of series [1] is Ba/F3-CRLF2 cells transduced with a library of JAK2 R683G. As to the kind of experiment: Random mutagenesis screen for resistance. The class given is cell-based. The settings on record: 3 μM inhibitor, absence of cytokines.
The subject of series [2] is Ba/F3-EpoR cells expressing JAK2 V617F or JAK2 V617F/L884P. As to the kind of experiment: Proliferation, L884P versus no L884P, JAK2 V617F. The class given is cell-based. The settings on record: 48 hr.
Series [3] concerns CRLF2-rearranged PDXs. The series is described as follows: PDX cells ex vivo, proliferation and apoptosis. The class given is cell-based, human. The settings on record: 1 μM; B-ALL-X2, -X3, -X4, -X6.
For series [4], the system named is MHH-CALL4 cells. As to the kind of experiment: MHH-CALL4 cell viability. The class given is cell-based, human. The settings on record: 72 hr.
Series [5] has as its system MHH-CALL4 cells. As to the kind of experiment: Immunoblotting of MHH-CALL4 lysates. The class given is cell-based, human. The settings on record: 1 μM, 2 hr.
For series [6], the system named is Ba/F3-CRLF2 cells expressing JAK2 R683G/L884P. As to the kind of experiment: Immunoblotting of Ba/F3-CRLF2 JAK2 R683G/L884P lysates. The class given is cell-based. The settings on record: concentrations up to 200 nM, 2 hr.
Series [7] deals with Ba/F3-CRLF2 cells expressing JAK2 R683G or JAK2 R683G/L884P. As to the kind of experiment: Proliferation, L884P versus no L884P, JAK2 R683G. The class given is cell-based. The settings on record: 48 hr.
The test system of series [8] is Ba/F3 cells expressing TEL-JAK2. As to the kind of experiment: Ba/F3 TEL-JAK2 growth inhibition. The class given is cell-based.
Series [9] has as its system panel consisting of over 400 kinases. As to the kind of experiment: In vitro kinase selectivity panel. The class given is biochemical. The settings on record: 100 nM; including JAK2 and TYK2.
The target in a further series is FLT3 (Homo sapiens, UniProt P36888). As to the kind of experiment: Off-target activity compared with BBT594.
FLT3, sequence (P36888 27-993, species assumed): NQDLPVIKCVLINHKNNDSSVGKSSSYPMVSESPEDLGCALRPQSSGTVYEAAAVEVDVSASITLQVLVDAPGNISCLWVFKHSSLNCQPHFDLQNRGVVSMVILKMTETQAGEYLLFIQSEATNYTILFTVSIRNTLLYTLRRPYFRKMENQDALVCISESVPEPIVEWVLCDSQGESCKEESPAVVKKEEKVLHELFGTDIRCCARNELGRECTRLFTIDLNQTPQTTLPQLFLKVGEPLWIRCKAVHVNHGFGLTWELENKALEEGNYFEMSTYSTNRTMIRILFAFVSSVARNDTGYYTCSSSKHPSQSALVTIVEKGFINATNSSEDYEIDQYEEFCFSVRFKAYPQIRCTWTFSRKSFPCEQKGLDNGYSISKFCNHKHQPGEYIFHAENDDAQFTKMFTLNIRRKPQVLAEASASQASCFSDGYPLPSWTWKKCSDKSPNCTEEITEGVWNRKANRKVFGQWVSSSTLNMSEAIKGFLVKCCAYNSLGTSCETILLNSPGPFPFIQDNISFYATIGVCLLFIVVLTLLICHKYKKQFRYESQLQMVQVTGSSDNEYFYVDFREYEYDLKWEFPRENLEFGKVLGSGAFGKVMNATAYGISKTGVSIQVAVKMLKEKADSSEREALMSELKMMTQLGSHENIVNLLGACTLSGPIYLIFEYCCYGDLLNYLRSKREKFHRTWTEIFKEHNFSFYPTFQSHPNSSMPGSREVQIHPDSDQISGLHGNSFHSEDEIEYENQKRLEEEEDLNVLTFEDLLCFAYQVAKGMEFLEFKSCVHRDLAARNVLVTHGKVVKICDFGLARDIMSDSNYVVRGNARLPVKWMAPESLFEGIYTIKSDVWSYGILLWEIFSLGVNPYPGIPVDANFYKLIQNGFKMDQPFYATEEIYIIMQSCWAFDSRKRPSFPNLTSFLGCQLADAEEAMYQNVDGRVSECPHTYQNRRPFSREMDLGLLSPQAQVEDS
In a further series the target is JAK2 (Homo sapiens, UniProt O60674). As to the kind of experiment: JAK2-driven cellular assays. The class given is cell-based.
JAK2, sequence (O60674 840-1132 limits assumed): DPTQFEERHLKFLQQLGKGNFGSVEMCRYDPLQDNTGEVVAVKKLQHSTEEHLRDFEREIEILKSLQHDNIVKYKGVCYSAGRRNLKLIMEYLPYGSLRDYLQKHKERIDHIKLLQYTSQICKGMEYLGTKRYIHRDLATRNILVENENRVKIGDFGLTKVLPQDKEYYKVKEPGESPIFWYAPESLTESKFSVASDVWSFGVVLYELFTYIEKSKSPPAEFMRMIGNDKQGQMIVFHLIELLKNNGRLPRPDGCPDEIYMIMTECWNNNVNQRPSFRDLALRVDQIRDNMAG
Series [10] deals with Ba/F3-CRLF2/JAK2 R683G cells. The series is described as follows: Immunoblotting of Ba/F3-CRLF2/JAK2 R683G lysates. The class given is cell-based. The settings on record: 2 hr exposure.
Series [11] relates to Eμ-CRLF2/Eμ-Jak2 R683G/Ts1Rhr/Pax5+/− (line 2539p) B-ALL. The series is described as follows: Transplanted transgenic murine B-ALL model. The settings on record: 14 days of treatment from day 15 after transplant.
In series [12] the test system is CRLF2-rearranged B-ALL PDXs.
The target of another series is BRAF (Homo sapiens, UniProt P15056). As to the kind of experiment: Cell-based kinase selectivity assay. The settings on record: follow-up of kinome panel hit.
A further series in a line: Pharmacokinetics. The class given is in vivo, mice.
Series [13] concerns the target activated (phosphorylated) JAK2 kinase (Homo sapiens, UniProt O60674). The series is described as follows: JAK2 biochemical kinase assay.
In the next series the test system is BALB/c mice. The series is described as follows: rhEpo-induced splenomegaly and reticulocytosis, four days. The class given is in vivo. The settings on record: 30 mg/kg/day, sacrificed day 5.
Series [14] concerns CRLF2-rearranged PDXs. As to the kind of experiment: Dynamic BH3 profiling of PDX cells ex vivo. The settings on record: 300 nM, 16 hr ex vivo. The class given is cell-based, human.
For series [15], the target named is T1, RET (Homo sapiens, UniProt P07949). As to the kind of experiment: Off-target activity compared with BBT594.
T1 sequence (P07949 29-1114, species assumed): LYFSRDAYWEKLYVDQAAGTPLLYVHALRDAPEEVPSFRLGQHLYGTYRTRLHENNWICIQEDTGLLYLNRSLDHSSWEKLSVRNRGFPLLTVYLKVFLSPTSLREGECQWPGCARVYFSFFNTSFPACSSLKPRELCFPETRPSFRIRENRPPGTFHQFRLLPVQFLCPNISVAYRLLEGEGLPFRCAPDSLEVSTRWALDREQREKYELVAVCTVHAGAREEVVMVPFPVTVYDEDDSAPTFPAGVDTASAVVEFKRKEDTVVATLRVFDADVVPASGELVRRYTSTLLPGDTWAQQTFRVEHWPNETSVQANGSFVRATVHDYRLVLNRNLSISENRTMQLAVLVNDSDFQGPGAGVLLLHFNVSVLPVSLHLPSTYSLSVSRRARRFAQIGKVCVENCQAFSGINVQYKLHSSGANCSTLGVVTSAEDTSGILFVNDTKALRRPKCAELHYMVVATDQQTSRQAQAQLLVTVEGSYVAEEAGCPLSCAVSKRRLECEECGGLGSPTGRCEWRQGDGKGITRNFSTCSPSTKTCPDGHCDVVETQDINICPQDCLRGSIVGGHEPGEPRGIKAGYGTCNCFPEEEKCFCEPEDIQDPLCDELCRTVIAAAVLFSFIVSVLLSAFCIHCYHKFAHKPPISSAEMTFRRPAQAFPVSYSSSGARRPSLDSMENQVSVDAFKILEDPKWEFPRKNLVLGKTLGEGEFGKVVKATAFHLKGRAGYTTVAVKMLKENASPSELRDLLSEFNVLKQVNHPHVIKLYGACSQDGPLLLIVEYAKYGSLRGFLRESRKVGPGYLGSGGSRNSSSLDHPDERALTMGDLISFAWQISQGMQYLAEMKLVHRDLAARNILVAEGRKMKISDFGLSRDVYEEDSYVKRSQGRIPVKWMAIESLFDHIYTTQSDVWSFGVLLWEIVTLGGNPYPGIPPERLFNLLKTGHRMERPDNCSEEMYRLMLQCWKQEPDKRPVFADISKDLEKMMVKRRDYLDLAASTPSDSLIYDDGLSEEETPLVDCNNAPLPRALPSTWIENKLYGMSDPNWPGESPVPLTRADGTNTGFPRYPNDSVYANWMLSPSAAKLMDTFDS
The test system of a further series is wild-type mice. The series is described as follows: Tolerability in wild-type mice. The class given is in vivo. The settings on record: 30 mg/kg/day for >6 weeks.
The test system of the next series is VEGFR family kinases. The series is described as follows: Cell-based kinase selectivity assay.
Another series can be described thus: Passive permeability. The class given is in vitro ADME.
Another series has as its target ABL (Homo sapiens, UniProt P00519). As to the kind of experiment: Cell-based kinase selectivity assay. The settings on record: follow-up of kinome panel hit.
Series [16] has as its target T1, RET. As to the kind of experiment: Cell-based kinase selectivity assay. The settings on record: follow-up of kinome panel hit.
In series [17] the test system is pSTAT5 in the spleen and bone marrow. The series is described as follows: rhEpo-induced pSTAT5 in murine model of polycythemia. The class given is in vivo, mice.
A further series relates to PDGFR family kinases. As to the kind of experiment: Cell-based kinase selectivity assay.
The next series in a line: Metabolic stability. The class given is in vitro ADME.
Series [18] in a line: Drug concentration within the spleen, rhEpo model. The class given is in vivo, mice. The settings on record: oral 30 mg/kg/day.
The next series concerns the target KIT (Homo sapiens, UniProt P10721). The series is described as follows: Cell-based kinase selectivity assay.
A further series deals with BCR-ABL (Homo sapiens, UniProt P00519+P11274). The series is described as follows: Off-target activity compared with BBT594.
BCR-ABL, sequence (P00519 242-493 limits assumed, one chain of several): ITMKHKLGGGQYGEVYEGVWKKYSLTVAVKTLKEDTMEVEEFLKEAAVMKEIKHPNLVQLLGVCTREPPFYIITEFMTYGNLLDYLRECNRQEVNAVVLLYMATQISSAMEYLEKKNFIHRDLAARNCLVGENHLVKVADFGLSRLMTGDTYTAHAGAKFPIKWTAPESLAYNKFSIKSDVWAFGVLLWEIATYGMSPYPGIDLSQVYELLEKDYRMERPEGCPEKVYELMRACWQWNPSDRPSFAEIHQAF
Series [19] has as its system MHH-CALL4 cells. As to the kind of experiment: Synergy screen with B-ALL chemotherapies. The class given is cell-based, human. The settings on record: isobologram, combination index.

activated (phosphorylated) JAK2 kinase, sequence (O60674 808-1132): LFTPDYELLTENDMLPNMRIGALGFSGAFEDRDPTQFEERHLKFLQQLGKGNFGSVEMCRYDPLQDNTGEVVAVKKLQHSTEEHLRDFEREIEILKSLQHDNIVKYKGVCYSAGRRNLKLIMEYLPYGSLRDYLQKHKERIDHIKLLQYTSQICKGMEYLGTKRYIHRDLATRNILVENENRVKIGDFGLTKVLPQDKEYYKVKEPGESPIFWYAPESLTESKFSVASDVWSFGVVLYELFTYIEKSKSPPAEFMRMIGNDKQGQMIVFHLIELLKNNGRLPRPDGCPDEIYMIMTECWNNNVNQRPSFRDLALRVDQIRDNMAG
ABL, sequence (P00519 whole entry, species assumed): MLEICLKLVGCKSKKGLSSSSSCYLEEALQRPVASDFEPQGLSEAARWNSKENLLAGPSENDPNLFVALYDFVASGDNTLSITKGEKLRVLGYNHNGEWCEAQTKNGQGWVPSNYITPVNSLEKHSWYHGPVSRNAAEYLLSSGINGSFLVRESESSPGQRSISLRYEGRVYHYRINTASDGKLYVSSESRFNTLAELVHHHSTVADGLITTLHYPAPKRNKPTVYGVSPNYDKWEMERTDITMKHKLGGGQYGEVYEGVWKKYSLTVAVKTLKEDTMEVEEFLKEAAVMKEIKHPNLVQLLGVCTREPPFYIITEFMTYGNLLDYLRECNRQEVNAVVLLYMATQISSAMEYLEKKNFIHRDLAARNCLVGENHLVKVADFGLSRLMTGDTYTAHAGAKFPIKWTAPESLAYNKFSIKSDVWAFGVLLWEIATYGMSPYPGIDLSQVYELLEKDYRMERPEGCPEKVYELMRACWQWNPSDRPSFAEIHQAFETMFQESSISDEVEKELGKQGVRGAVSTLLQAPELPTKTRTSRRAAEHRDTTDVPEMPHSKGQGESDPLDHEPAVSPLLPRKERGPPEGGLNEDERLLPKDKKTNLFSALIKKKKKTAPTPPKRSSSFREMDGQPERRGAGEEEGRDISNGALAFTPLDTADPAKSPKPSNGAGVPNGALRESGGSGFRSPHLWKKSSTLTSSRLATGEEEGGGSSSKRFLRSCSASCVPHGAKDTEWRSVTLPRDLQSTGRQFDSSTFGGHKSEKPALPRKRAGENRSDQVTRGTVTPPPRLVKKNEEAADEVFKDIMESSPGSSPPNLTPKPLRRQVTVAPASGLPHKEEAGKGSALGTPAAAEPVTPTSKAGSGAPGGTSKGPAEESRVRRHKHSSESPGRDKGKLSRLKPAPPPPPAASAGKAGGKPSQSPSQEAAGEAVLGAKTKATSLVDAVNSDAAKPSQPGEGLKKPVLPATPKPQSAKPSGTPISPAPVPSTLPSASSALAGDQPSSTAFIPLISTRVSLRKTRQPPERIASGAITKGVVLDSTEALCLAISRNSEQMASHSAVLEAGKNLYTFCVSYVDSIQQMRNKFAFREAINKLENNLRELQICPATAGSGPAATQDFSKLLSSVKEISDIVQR
KIT, sequence (P10721 26-976, species assumed): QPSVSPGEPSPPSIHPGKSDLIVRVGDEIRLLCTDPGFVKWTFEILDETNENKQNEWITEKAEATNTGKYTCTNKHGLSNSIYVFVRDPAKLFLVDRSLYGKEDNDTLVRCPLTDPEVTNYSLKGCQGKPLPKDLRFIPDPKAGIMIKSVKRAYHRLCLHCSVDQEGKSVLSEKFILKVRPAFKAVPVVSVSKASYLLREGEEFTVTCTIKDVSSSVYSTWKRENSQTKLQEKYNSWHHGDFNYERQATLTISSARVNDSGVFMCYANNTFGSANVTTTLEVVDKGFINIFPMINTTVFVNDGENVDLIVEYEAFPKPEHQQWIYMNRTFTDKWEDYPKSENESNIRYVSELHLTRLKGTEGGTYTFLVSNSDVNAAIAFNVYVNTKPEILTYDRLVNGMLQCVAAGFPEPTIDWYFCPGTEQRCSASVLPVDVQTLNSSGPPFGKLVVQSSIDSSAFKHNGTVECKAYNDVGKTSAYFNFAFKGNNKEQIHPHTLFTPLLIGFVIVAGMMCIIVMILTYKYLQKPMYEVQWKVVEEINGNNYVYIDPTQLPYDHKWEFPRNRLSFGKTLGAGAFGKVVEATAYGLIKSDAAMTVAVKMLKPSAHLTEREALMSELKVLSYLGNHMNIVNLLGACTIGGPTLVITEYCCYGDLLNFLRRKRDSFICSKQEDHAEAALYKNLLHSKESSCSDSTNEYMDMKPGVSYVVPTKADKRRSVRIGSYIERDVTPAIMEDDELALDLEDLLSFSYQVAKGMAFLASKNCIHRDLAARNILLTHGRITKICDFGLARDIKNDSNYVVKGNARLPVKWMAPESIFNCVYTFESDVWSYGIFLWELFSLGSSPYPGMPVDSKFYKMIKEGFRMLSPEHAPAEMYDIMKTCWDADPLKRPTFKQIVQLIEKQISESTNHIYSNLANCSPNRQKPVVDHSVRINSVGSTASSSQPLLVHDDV

For `CC(=O)Nc1cc(Oc2ccc3c(c2)CCN3C(=O)Nc2ccc(CN3CCN(C)CC3)c(C(F)(F)F)c2)ncn1` [BBT594], the “resistant clones recovered after selection” value in series [1] was “Over 30 clones”. In addition, in series [2], the “IC50 fold-shift for cells expressing L884P compared to cells without L884P” value (“IC50 fold-shift … to cells without L884P” for short) is given as 2–3 fold. In the series on CRLF2-rearranged PDXs [3], the apoptosis ex vivo entry is “induced apoptosis” and the proliferation ex vivo entry was “consistently blocked proliferation”. In the series on MHH-CALL4 cells [4], this compound registered an IC50 of approximately 100 nM. Besides, the “JAK2 activation loop phosphorylation” value in the series with MHH-CALL4 cells [5] was “suppressed JAK2 phosphorylation”. In series [6], the “suppressive effects on pJAK2, pSTAT5, and c-Myc in presence of L884P” value was “abrogated”. Moreover, in series [7], the “IC50 fold-shift … to cells without L884P” value is “approximately 11 fold”.
In turn, `Fc1cc(-c2cccc3ncc(-c4cnn(C5CCNCC5)c4)nc23)cc(F)c1CN1CCOCC1` [BSK805] returned a half-inhibitory concentration (IC50) in the series on MHH-CALL4 cells [4] of more than 2000 nM. Moreover, the “JAK2 activation loop phosphorylation” value in the series with MHH-CALL4 cells [5] was “hyperphosphorylation”. Further, the “IC50 fold-shift … to cells without L884P” value in [7] is recorded as “minimal effects”.
In the same order, the values of `C[C@@H]1CN(c2ccc(Nc3ncc4ccn(-c5cc(F)c(CN6CCOCC6)c(F)c5)c4n3)cc2)C[C@H](C)N1` [BVB808] are more than 2000 nM, “hyperphosphorylation” and “minimal effects”.
For the compound `CC(=O)Nc1cc(Oc2ccc3c(nc(Nc4ccc(F)cc4F)n3C)c2C)ccn1` [CHZ868], the “activity in Ba/F3 TEL-JAK2 cells” value in series [8] is on record as “highly active”. In addition, the “number of kinases with activity” value in series [9] was found to be 26 kinases. For the same compound, the “FLT3 inhibition compared with BBT594” value on FLT3 is reported as “significantly reduced”. Further, the “potency in JAK2-driven cellular assays” value at JAK2 is “excellent potency”. The “resistant clones recovered after selection” value in [1] is recorded as “none”. For the same compound, in series [10], the “pJAK2 and pSTAT5 by immunoblotting” value was “completely abrogated”. The “overall survival compared to vehicle” value in series [11] was “increased overall survival”. Besides, in [12] (30 mg/kg/day, 6 days), the pSTAT5 in spleens entry is “almost complete loss”, the “peripheral WBC counts compared to control animals” value is reported as “lower” and the “splenomegaly compared to control animals” value was “reduced splenomegaly”. Also, in series [12] (25 days of treatment), the “overall survival compared to control animals” value is given as “markedly improved”. Further, the “activity against BRAF in the cellular setting” value at BRAF is “not corroborated”. Moreover, the “blood t1/2” value in “Pharmacokinetics” (mice) turned out to be 1 h. Further, the blood clearance result in the series “Pharmacokinetics” (mouse, in vivo) was “moderate”. For the same compound, the oral bioavailability result in “Pharmacokinetics” (mouse, in vivo, po) is recorded as “good”. The “inhibitory activity in enzymatic assays” value in series [13] (activated (phosphorylated) JAK2 kinase) is “modest inhibitory activity”. The “JAK2 inhibitory activity, fold improved over BBT594” value in [13] (enzymatic and cell-based assays, Figure 1B) is 3–9 fold. For the same compound, in the series on BALB/c mice, the WBC count result is reported as “did not affect”, the “increase in reticulocyte count induced by rhEpo” value is listed as “blocked” and the “splenomegaly induced by rhEpo” value is listed as “completely blocked”. Also, in series [2], the “IC50 fold-shift … to cells without L884P” value is 2–3 fold. For the same compound, the “cytochrome C release upon exposure to BIM compared to vehicle” value with CRLF2-rearranged PDXs [14] is given as “significantly increased”. In addition, the “RET inhibition compared with BBT594” value at RET [15] was “significantly reduced”. In addition, in the series with wild-type mice, the “effects on body weight, peripheral blood cell counts, bone marrow cellularity, fractions of hematopoietic progenitors” value is “no significant effects” and the spleen weights entry is reported as “trends towards reduced”. Moreover, in the series with wild-type mice (trend), the serum erythropoietin levels entry was “elevated”. In the series on VEGFR family kinases, the “activity against VEGFR family kinases in the cellular setting” value is recorded as “low nanomolar activity”. Further, in the series “Passive permeability”, the passive permeability entry is recorded as “high”. Moreover, the “activity against ABL in the cellular setting” value on ABL is listed as “not corroborated”. In addition, in the series on CRLF2-rearranged PDXs [3], the apoptosis ex vivo entry is “induced apoptosis” and the proliferation ex vivo entry is “consistently blocked proliferation”. The “activity against RET in the cellular setting” value on RET [16] is on record as “not corroborated”. Moreover, the “induction of pSTAT5 by rhEpo” value in [17] (oral 30 mg/kg/day, administered 2 hr prior to sampling) was “completely blocked”. Moreover, in series [17] (spleen and bone marrow), the “time for which rhEpo induction of pSTAT5 remained attenuated” value was 48–72 hr. Besides, the “activity against PDGFR family kinases in the cellular setting” value in the series with PDGFR family kinases is on record as “low nanomolar activity”. The compound also gave a concentration for half-maximal inhibition (IC50) in the series on MHH-CALL4 cells [4] of approximately 100 nM. The metabolic stability result in “Metabolic stability” was “good”. Moreover, the “concentration within the spleen” value in series [18] (2 hr after dosing) is recorded as 4.3 nmol/g. In addition, in series [18] (6 hr after dosing), the “drug level within the spleen” value is given as less than 1 nmol/g. In addition, the “JAK2 activation loop phosphorylation” value in the series with MHH-CALL4 cells [5] is recorded as “suppressed JAK2 phosphorylation”. For the same compound, the “suppressive effects on pJAK2, pSTAT5, and c-Myc in presence of L884P” value in [6] is listed as “abrogated”. In addition, in [7], the “IC50 fold-shift … to cells without L884P” value was 4 fold. Moreover, on KIT, the “activity against KIT in the cellular setting” value was “low nanomolar activity”. Also, the “BCR-ABL inhibition compared with BBT594” value on BCR-ABL is “significantly reduced”.
With `C[C@@H]1C[C@H]2[C@@H]3CCC4=CC(=O)C=C[C@]4(C)[C@@]3(F)[C@@H](O)C[C@]2(C)[C@@]1(O)C(=O)CO` [dexamethasone, reference compound], the “overall survival compared to vehicle” value in series [11] is given as “increased overall survival”. In addition, the “synergy with CHZ868” value in the series on MHH-CALL4 cells [19] is listed as “most notable synergy”.
Turning to `N#CC[C@H](C1CCCC1)n1cc(-c2ncnc3[nH]ccc23)cn1` [ruxolitinib], in the series on CRLF2-rearranged PDXs [3], the apoptosis ex vivo result is on record as “little or no effect” and the proliferation ex vivo entry is listed as “little or no effect”. Moreover, the “JAK2 activation loop phosphorylation” value with MHH-CALL4 cells [5] was “hyperphosphorylation”.
